pIC50: −log10 of the molar value.
tested on: pERK in NCI-H358 cells; test: Cell-based pERK HTRF assay (pERK inhibition in H358 cells); conditions: Homo sapiens, NCI-H358, 0.5 h, pERK inhibition IC50, NCI-H358 cells, 30 min incubation; read-out: PERK in H358 cell
Description: On Day 1, cells (NCI-H358) were seeded into 96-well plates at 4×10^4 cells/well in complete growth media (RPMI, 10% FBS).
The source plate was created with compounds diluted in media at 5-fold the final assay concentration. […] 20 μL was transferred onto the cell plates (final volume in wells was 100 μL). Plates were harvested after 30 min incubation by aspirating media and adding kit-supplied 1× supplemented lysis buffer to all wells (75 μl per well). Plates were then placed on a plate shaker and incubated at 850 rpm for an additional 30 min.
Antibody mixture solution was prepared by diluting aliquoted d2 and Eu Cryptate antibodies 1:20 in kit supplied detection buffer, then mixed the diluted antibodies solutions (1:1 v:v).
Samples were homogenized by pipetting up and down and then transferred (16 μL of cell lysates) from the 96-well cell culture plate to two wells of the HTRF 384-well detection plate containing the antibody solution. Plates were centrifuged (524 g for 1 min) and allowed to incubate between 4 and 24 h at room temperature. Maximum signal is reached after 4 h incubation time and remains stable over a period of 24 hours. Therefore, readings can be made between 4 and 24 h of incubation.

Row | Structure (SMILES) | pIC50
1 | C=CC(=O)N1CC[C@@H](N(C)c2nc(OC[C@@]34CCCN3C[C@H](F)C4)nc3c(F)c(-c4ccc(F)c5sc(N)c(C#N)c45)c(Cl)cc23)[C@H]1C [Compound 395, 4-(4-((1-acryloyl-2-methylpyrrolidin-3-yl)(methyl)amino)-6-chloro-8-fluoro-2-(((2R,7aS)-2-fluorotetrahydro-1H-pyrrolizin-7a(5H)-yl)methoxy)quinazolin-7-yl)-2-amino-7-fluorobenzo[b]thiophene-3-carbonitrile] | > 7.00
2 | C=CC(=O)N1CC(N(CC)c2nc(OC[C@]34CCCN3C[C@H](F)C4)nc3c(F)c(-c4ccc(F)c5sc(N)nc45)c(C(F)(F)F)cc23)C1 [Compound 206] | 6.00 to 7.00
3 | C=CC(=O)N1CC[C@@H](N(C)c2nc(OC[C@@]34CCCN3C[C@H](OC)C4)nc3c(F)c(-c4ccc(F)c5sc(N)nc45)c(C(F)(F)F)cc23)C1 [Compound 290] | > 7.00
4 | C=CC(=O)N1CC[C@@H](N(C)c2nc(OC[C@@]34CCCN3C[C@H](F)C4)nc3cc(-c4ccc(F)c5sc(N)c(C#N)c45)c(C(F)(F)F)cc23)[C@H]1C [Compound 354, 4-(4-(((2R,3R)-1-acryloyl-2-methylpyrrolidin-3-yl)(methyl)amino)-2-(((2R,7aS)-2-fluorotetrahydro-1H-pyrrolizin-7a(5H)-yl)methoxy)-6-(trifluoromethyl)quinazolin-7-yl)-2-amino-7-fluorobenzo[b]thiophene-3-carbonitrile] | > 7.00
5 | C=CC(=O)N1C[C@H](C)N(c2nc(OC[C@@]34CCCN3C[C@H](F)C4)nc3c(F)c(-c4ccc(F)c5sc(N)c(C#N)c45)ccc23)C[C@H]1C [Compound 312] | > 7.00
6 | C=CC(=O)N1CCN(c2nc(OC[C@@]34CCCN3C[C@H](F)C4)nc3c(F)c(-c4ccc(F)c5sc(N)nc45)c(C(F)(F)F)cc23)CC1 [Compound 194] | > 7.00
7 | C=CC(=O)N1CC(N(C)c2nc(OC[C@@H]3CC(F)(F)CN3C)nc3c(F)c(-c4ccc(F)c5sc(N)nc45)c(C(F)(F)F)cc23)C1 [Compound 181] | < 6.00
8 | C=CC(=O)N1CC(N(c2nc(OCC34CCCN3CCC4)nc3c(F)c(-c4ccc(F)c5sc(N)nc45)c(Cl)cc23)C2CC2)C1 [Compound 151] | < 6.00
9 | C=CC(=O)N1C[C@H](C)N(c2nc(N3CC(N4CC(O)C4)C3)nc3c(F)c(-c4ccc(F)c5sc(N)c(C#N)c45)c(C(F)(F)F)cc23)C[C@H]1C [Compound 328] | > 7.00
10 | C=CC(=O)N1CCN(c2nc(OCC34CCCN3CCC4)nc3c(F)c(-c4ccc(F)c5sc(N)nc45)c(C(F)F)cc23)CC1 [Compound 246] | 6.00 to 7.00
11 | C=CC(=O)N1C[C@@H](F)[C@@H](N(C)c2nc(OC[C@@]34CCCN3C[C@H](F)C4)nc3cc(-c4ccc(F)c5sc(N)nc45)c(C(F)(F)F)cc23)C1 [Compound 317] | > 7.00
12 | C=CC(=O)N1C[C@H](C)N(c2nc(OC[C@@]34CCCN3C[C@H](F)C4)nc3c(F)c(-c4ccc(F)c5sc(N)c(C#N)c45)c(C(F)(F)F)cc23)C[C@H]1C [Compound 252, 4-(4-((2S,5R)-4-acryloyl-2,5-dimethylpiperazin-1-yl)-8-fluoro-2-(((2R,7aS)-2-fluorotetrahydro-1H-pyrrolizin-7a(5H)-yl)methoxy)-6-(trifluoromethyl)quinazolin-7-yl)-2-amino-7-fluorobenzo[b]thiophene-3-carbonitrile] | > 7.00
13 | C=CC(=O)N1C[C@H](C)N(c2nc(OC[C@@]34CCCN3C[C@H](F)C4)nc3c(F)c(-c4ccc(F)c5sc(N)nc45)c(C(F)(F)F)cc23)C[C@H]1C [Compound 202, 1-((2R,5S)-4-(7-(2-amino-7-fluorobenzo[d]thiazol-4-yl)-8-fluoro-2-(((2R,7aS)-2-fluorotetrahydro-1H-pyrrolizin-7a(5H)-yl)methoxy)-6-(trifluoromethyl)quinazolin-4-yl)-2,5-dimethylpiperazin-1-yl)prop-2-en-1-one] | > 7.00
14 | C=CC(=O)N1C[C@H](C)N(c2nc(OC[C@@]34CCCN3C[C@H](F)C4)nc3c(F)c(-c4ccc(F)c5sc(N)nc45)c(C(F)F)cc23)C[C@H]1C [Compound 291] | > 7.00
15 | C=CC(=O)N1CC[C@@H](N(CC)c2nc(OC[C@@]34CCCN3C[C@H](F)C4)nc3c(F)c(-c4ccc(F)c5sc(N)nc45)c(C(F)(F)F)cc23)C1 [Compound 257] | > 7.00
16 | C=CC(=O)N1CC[C@@H](N(C)c2nc(OC[C@@H]3CCCN3C)nc3c(F)c(-c4ccc(F)c5sc(N)nc45)c(C(F)(F)F)cc23)C1 [Compound 230] | 6.00 to 7.00
17 | C=CC(=O)N(C)C1CN(c2nc(OCC34CCCN3CCC4)nc3c(F)c(-c4ccc(F)c5sc(N)nc45)c(Cl)cc23)C1 [Compound 167] | < 6.00
18 | C=CC(=O)N1C[C@@H](F)[C@@H](N(C)c2nc(OC[C@@]34CCCN3C[C@H](F)C4)nc3c(F)c(-c4ccc(F)c5sc(N)c(C#N)c45)c(C(F)(F)F)cc23)C1 [Compound 316] | > 7.00

Now from value to compound:

Row | pIC50 | Structure (SMILES)
19 | > 7.00 | C=CC(=O)N1CC[C@@H](N(C)c2nc(OC[C@@]34CCCN3C[C@H](F)C4)nc3c(F)c(-c4ccc(F)c5sc(N)c(C#N)c45)c(C(F)(F)F)cc23)[C@H]1C [Compound 381, 4-(4-(((2R,3R)-1-acryloyl-2-methylpyrrolidin-3-yl)(methyl)amino)-8-fluoro-2-(((2R,7aS)-2-fluorotetrahydro-1H-pyrrolizin-7a(5H)-yl)methoxy)-6-(trifluoromethyl)quinazolin-7-yl)-2-amino-7-fluorobenzo[b]thiophene-3-carbonitrile]
20 | > 7.00 | C=CC(=O)N1C[C@@H](F)[C@@H](N(CC)c2nc(OC[C@@]34CCCN3C[C@H](F)C4)nc3c(F)c(-c4ccc(F)c5sc(N)c(C#N)c45)c(C(F)(F)F)cc23)C1 [Compound 362]
21 | > 7.00 | C=CC(=O)N1CC[C@@H](N(C)c2nc(OC[C@@]34CCCN3C[C@H](F)C4)nc3c(F)c(-c4ccc(F)c5sc(N)c(C#N)c45)c(C(F)(F)F)cc23)[C@@H]1C [Compound 469]
22 | > 7.00 | C=CC(=O)N1CCC(N(C)c2nc(OC[C@@H]3CCCN3CC)nc3c(F)c(-c4ccc(F)c5sc(N)c(C#N)c45)c(C(F)(F)F)cc23)[C@H]1C (stereo partly drawn) [Compound 451]
23 | > 7.00 | C=CC(=O)N1CC[C@@H](N(CC)c2nc(OC[C@@]34CCCN3C[C@H](F)C4)nc3c(F)c(-c4ccc(F)c5sc(N)c(C#N)c45)c(C(F)(F)F)cc23)[C@H]1COC [Compound 442]
24 | > 7.00 | C=CC(=O)N1CCC(N(CC)c2nc(OC[C@@H]3C[C@@H](OC)CN3C)nc3c(F)c(-c4ccc(F)c5sc(N)c(C#N)c45)c(C(F)(F)F)cc23)[C@H]1COC (stereo partly drawn) [Compound 427]
25 | 6.00 to 7.00 | C=CC(=O)N1CCC(N(CC)c2nc(OC[C@@]34CCCN3C[C@H](F)C4)nc3c(F)c(-c4ccc(F)c5sc(N)c(C#N)c45)ccc23)[C@H]1COC (stereo partly drawn) [Compound 412]
26 | > 7.00 | C=CC(=O)N1CC[C@@H](N(C)c2nc(OC[C@@]34CCCN3C[C@H](F)C4)nc3c(F)c(-c4ccc(F)c5sc(N)c(C#N)c45)c(C(F)(F)F)cc23)[C@H]1COC [Compound 401]
27 | > 7.00 | C=CC(=O)N1CCC(N(C)c2nc(OC[C@@H]3C[C@@H](OC)CN3C)nc3c(F)c(-c4ccc(F)c5sc(N)c(C#N)c45)ccc23)[C@H]1COC (stereo partly drawn) [Compound 424]
28 | > 7.00 | C=CC(=O)N1C[C@@H](F)[C@@H](N(C)c2nc(OC[C@@H]3C[C@@H](F)CN3C)nc3cc(-c4ccc(F)c5sc(N)c(C#N)c45)c(C(F)(F)F)cc23)C1 [Compound 356]
29 | > 7.00 | C=CC(=O)N1C[C@H](C)N(c2nc(OC[C@@H]3CCCN3C)nc3c(F)c(-c4ccc(F)c5sc(N)c(C#N)c45)c(C(F)(F)F)cc23)C[C@H]1C [Compound 363, 4-(4-((2S,5R)-4-acryloyl-2,5-dimethylpiperazin-1-yl)-8-fluoro-2-(((S)-1-methylpyrrolidin-2-yl)methoxy)-6-(trifluoromethyl)quinazolin-7-yl)-2-amino-7-fluorobenzo[b]thiophene-3-carbonitrile]
30 | > 7.00 | C=CC(=O)N1CCC(N(C)c2nc(OC[C@@]34CCCN3C[C@H](OC)C4)nc3c(F)c(-c4ccc(F)c5sc(N)c(C#N)c45)c(C(F)(F)F)cc23)[C@H]1C (stereo partly drawn) [Compound 476]
31 | 6.00 to 7.00 | C=CC(=O)N1CCC(N(C)c2nc(OC[C@@H]3C[C@@H](OC)CN3C)nc3cc(-c4ccc(F)c5sc(N)c(C#N)c45)c(C#N)cc23)[C@H]1COC (stereo partly drawn) [Compound 465]

same assay, conditions: pERK inhibition IC50, NCI-H358 cells, 30 min incubation; read-out: PERK in H358 cell

Row | pIC50 | Structure (SMILES)
32 | < 6.00 | C=CC(=O)N1CCC[C@@H](N(C)c2nc(OC[C@@]34CCCN3C[C@H](F)C4)nc3c(F)c(-c4ccc(F)c5sc(N)nc45)c(C(F)(F)F)cc23)C1 [Compound 245]
33 | < 6.00 | C=CC(=O)N1C[C@H](N(C)c2ncnc3c(F)c(-c4ccc(F)c5sc(N)nc45)c(C(F)(F)F)cc23)C[C@H]1C (atropisomer, axis not shown) [Compound 251]
34 | < 6.00 | C=CC(=O)N1CC[C@@H](N(c2nc(OC[C@@]34CCCN3C[C@H](F)C4)nc3c(F)c(-c4ccc(F)c5sc(N)nc45)c(C(F)(F)F)cc23)C2CC2)C1 (single isomer, unassigned) [Compound 237]
35 | > 7.00 | C=CC(=O)N1CC[C@@H](N(C)c2nc(OC[C@@H]3CC4(CC4)CN3C)nc3c(F)c(-c4ccc(F)c5sc(N)nc45)c(C(F)(F)F)cc23)C1 (atropisomer, axis not shown) [Compound 256]
36 | 6.00 to 7.00 | C=CC(=O)N1CC[C@@H](N(C)c2nc(OCC34CCCN3CCC4)nc3c(F)c(-c4ccc(F)c5sc(N)nc45)c(C(F)(F)F)cc23)C1 (atropisomer, axis not shown) [Compound 222]

— patent US12528818B2, “Compositions and methods for inhibition of RAS” (Leidos Biomedical Research, Inc., priority 2021, dated 2026)
